Measured values reported in US20250361253A1, “STING AGONIST COMPOUNDS” (Sutro Biopharma, Inc., priority 2022, published 2025).

Tests used:
hSTING-R232 = molecular target: T1, hSTING-R232 (Homo sapiens, UniProt Q86WV6, H232R); assay: ISG reporter induction in 293-Dual hSTING-R232 reporter cells (QUANTI-Blue); format: cell-based; settings: 293-Dual hSTING-R232 cells, overnight incubation
T1 construct: host or cells: 293-Dual (HEK293-derived) reporter cells
Method: (§1) Certain STING compounds of the disclosure were evaluated in an in vitro cell based assay.
(§2) 293-Dual hSTING-R232 and mSTING cells (Invivogen) were seeded at 25,000 cells/well (50 ul) and co-cultured with STING agonists (2× concentration, 50 ul) in clear, half-area, 96-well polystyrene plates. Cells and test samples were prepared in DMEM supplemented with 10% FBS, Glutamax, and PenStrep. After overnight incubation at 37 C in a CO2 incubator, 20 ul of supernatant was added to QUANTI-Blue detection reagent (Invivogen). After one hour incubation at 37 C, plates were read at 640/650 nm on EnVision plate reader (PerkinElmer). OD values were plotted by log(agonist) vs. response, variable slope, four parameter curve fit (Log transform) using GraphPad Prism software to determine EC50 values.

mSTING = molecular target: T2, mSTING (Mus musculus, UniProt Q3TBT3); assay: ISG reporter induction in 293-Dual mSTING reporter cells (QUANTI-Blue); format: cell-based; settings: 293-Dual mSTING cells, overnight incubation
T2 construct: host or cells: 293-Dual (HEK293-derived) reporter cells
T2 sequence (Q3TBT3 1-378): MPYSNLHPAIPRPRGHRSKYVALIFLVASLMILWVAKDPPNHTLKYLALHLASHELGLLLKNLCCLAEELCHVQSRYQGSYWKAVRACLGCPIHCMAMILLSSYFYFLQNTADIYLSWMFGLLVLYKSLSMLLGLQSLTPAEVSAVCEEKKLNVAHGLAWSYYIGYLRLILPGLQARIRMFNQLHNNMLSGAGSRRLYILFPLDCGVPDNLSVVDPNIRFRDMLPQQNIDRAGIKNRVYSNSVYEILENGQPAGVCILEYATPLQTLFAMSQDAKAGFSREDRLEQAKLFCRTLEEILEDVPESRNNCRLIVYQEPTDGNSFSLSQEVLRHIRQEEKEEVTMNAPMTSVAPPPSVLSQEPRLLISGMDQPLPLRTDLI
Method: as §1, §2

T1 sequence (Q86WV6 whole entry H232R): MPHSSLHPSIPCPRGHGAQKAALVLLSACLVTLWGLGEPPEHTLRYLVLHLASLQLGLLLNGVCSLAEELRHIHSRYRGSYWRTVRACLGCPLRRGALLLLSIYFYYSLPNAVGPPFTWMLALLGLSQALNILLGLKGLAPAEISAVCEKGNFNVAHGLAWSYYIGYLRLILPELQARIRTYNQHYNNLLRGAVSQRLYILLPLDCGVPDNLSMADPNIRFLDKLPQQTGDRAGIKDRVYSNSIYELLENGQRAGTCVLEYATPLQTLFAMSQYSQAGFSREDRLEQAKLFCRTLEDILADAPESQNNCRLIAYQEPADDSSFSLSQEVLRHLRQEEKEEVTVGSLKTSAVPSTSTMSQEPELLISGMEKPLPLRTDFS

SMILES | EC50 (hSTING-R232) [nM] | EC50 (mSTING) [nM]
COC(=O)C(C)(C)CC(=O)c1cc2c(F)c(OCCCOc3c(OC)cc4sc(C(=O)CC(C)(C)P(=O)(O)O)cc4c3F)c(OC)cc2s1 [Compound 10] | > 150 | > 150
COc1cc2cc(C(=O)CCC(=O)O)ccc2c(F)c1OCCCOc1c(OC)cc2sc(C(=O)CC(C)(C)C(=O)O)cc2c1F [Compound 16, 4-(5-(3-((6-(3-Carboxypropanoyl)-1-fluoro-3-methoxynaphthalen-2-yl)oxy)propoxy)-4-fluoro-6-methoxybenzo[b]thiophen-2-yl)-2,2-dimethyl-4-oxobutanoic acid] | > 150 | > 150
COc1cc2sc(C(=O)CC(C)(C)C(=O)O)cc2c(C)c1OCCCOc1c(OC)cc2sc(C(=O)CP(=O)(O)O)cc2c1C [Compound 34] | > 150 | > 150
COC(=O)C(C)(C)CC(=O)c1cc2c(F)c(OCCCOc3c(OC)cc4sc(C(=O)CP(=O)(OC)OC)cc4c3F)c(OC)cc2s1 [Compound 3, Methyl 4-(5-(3-((2-(2-(dimethoxyphosphoryl)acetyl)-4-fluoro-6-methoxybenzo[b]thiophen-5-yl)oxy)propoxy)-4-fluoro-6-methoxybenzo[b]thiophen-2-yl)-2,2-dimethyl-4-oxobutanoate] | > 150 | > 150
COc1cc2sc(C(=O)CC(C)(C)C(=O)O)cc2c(F)c1OCCCOc1ccc2cc(C(=O)CCC(=O)O)ccc2c1 [Compound 13, 4-(5-(3-((6-(3-Carboxypropanoyl)naphthalen-2-yl)oxy)propoxy)-4-fluoro-6-methoxybenzo[b]thiophen-2-yl)-2,2-dimethyl-4-oxobutanoic acid] | 50 to 150 | 50 to 150
COc1cc2sc(C(=O)CC(C)(C)C(=O)O)cc2c(F)c1OCCCOc1c(OC)cc2sc(C(=O)CP(=O)(OC)OC)cc2c1F [Compound 4, 4-(5-(3-((2-(2-(Dimethoxyphosphoryl)acetyl)-4-fluoro-6-methoxybenzo[b]thiophen-5-yl)oxy)propoxy)-4-fluoro-6-methoxybenzo[b]thiophen-2-yl)-2,2-dimethyl-4-oxobutanoic acid] | > 150 | 50 to 150
COc1cc2sc(/C=C/CC(=O)O)cc2c(F)c1OCCCOc1c(OC)cc2sc(/C=C/CC(=O)O)cc2c1F [Compound 33] | > 150 | > 150
COc1cc2sc(/C=C/CC(=O)O)cc2c(F)c1OCCCOc1c(OC)cc2sc(C(=O)CP(=O)(O)O)cc2c1F [Compound 32] | 50 to 150 | > 150

Results, then the molecule that gave them:

EC50 (hSTING-R232) [nM] | EC50 (mSTING) [nM] | SMILES
> 150 | ≤ 50 | COc1cc2sc(C(=O)CCP(=O)(O)O)cc2c(F)c1OCCCOc1c(OC)cc2sc(C(=O)CC(C)(C)C(=O)O)cc2c1F [Compound 21]
> 150 | 50 to 150 | COC(=O)C(C)(C)CC(=O)c1cc2c(F)c(OCCCOc3c(OC)cc4sc(C(=O)CS(=O)(=O)O)cc4c3F)c(OC)cc2s1 [Compound 2, 2-(4-Fluoro-5-(3-((4-fluoro-6-methoxy-2-(4-methoxy-3,3-dimethyl-4-oxobutanoyl)benzo[b]thiophen-5-yl)oxy)propoxy)-6-methoxybenzo[b]thiophen-2-yl)-2-oxoethane-1-sulfonic acid]
> 150 | ≤ 50 | COc1cc2sc(C(=O)CCS(=O)(=O)O)cc2c(F)c1OCCCOc1c(OC)cc2sc(C(=O)CC(C)(C)C(=O)O)cc2c1F [Compound 14, 4-(4-fluoro-5-(3-((4-fluoro-6-methoxy-2-(3-sulfopropanoyl)benzo[b]thiophen-5-yl)oxy)propoxy)-6-methoxybenzo[b]thiophen-2-yl)-2,2-dimethyl-4-oxobutanoic acid]
> 150 | > 150 | COc1cc2sc(C(=O)CC(C)(C)C(=O)O)cc2c(F)c1OCCCOc1c(OC)cc2sc(C(=O)CC(C)(C)C(=O)NS(=O)(=O)CCN)cc2c1F [Compound 17, 4-(5-(3-((2-(4-((2-Aminoethyl)sulfonamido)-3,3-dimethyl-4-oxobutanoyl)-4-fluoro-6-methoxybenzo[b]thiophen-5-yl)oxy)propoxy)-4-fluoro-6-methoxybenzo[b]thiophen-2-yl)-2,2-dimethyl-4-oxobutanoic acid]
